Holding throughout (test): NCI anticancer screen, dose series, 48 h
The test system of assay [1] is UACC-257 melanoma.
For assay [2], the system named is HOP-62 NSCLC.
Assay [3] has as its system OVCAR-5 ovarian.
In assay [4] the test system is ACHN renal.
Assay [5] deals with A549 NSCLC.
Assay [6] has as its system NCI-H23 lung.
The subject of assay [7] is SW-620 colon.
Assay [8] has as its system SF-539 CNS.
The test system of assay [9] is TK-10 renal.
Assay [10] has as its system MDA-MB-231 breast.

From PubChem BioAssay (NCI) come the findings set out here.

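Grown in 96-well plates, cells were treated for 48 hours with each compound at five concentrations. Insufficient inhibition: endpoint recorded as highest concentration tested. Abbreviation: GI50, concentration required for 50% inhibition of growth. The concentration for full growth arrest is given as TGI.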

Turning to `COc1cc(Cc2ccc3c(c2C#N)N(C)c2ccccc2S3)cc(OC)c1OC`, the TGI in assay [1], in [2], in assay [3], in assay [4], in assay [5] and in [6] was > 100 µM throughout. Besides, the values for the TGI in [7], in assay [8] and in assay [9] were > 100 µM, 42.7 µM and > 100 µM, respectively.

As to `O=c1oc2c(ccc3c(O)cccc32)c2c1CCCC2`, the TGI was > 100 µM in assay [1]; 47.1 µM in assay [10]; 48.4 µM in assay [2]; > 100 µM in [3]; > 100 µM in assay [4]; > 100 µM in assay [5]. Also, the TGI in assay [6], in assay [7], in assay [8] and in assay [9] was > 100 µM throughout.

Consider `COc1cc(C2S/C(=C/c3ccccc3)C(=O)N2c2ccccc2Cl)cc(OC)c1OC` (configuration not stated), for which the TGI is > 100 µM in assay [1]; 67.3 µM in assay [10]; > 100 µM in assay [2]; > 100 µM in assay [3]; > 100 µM in assay [4]; > 100 µM in assay [5]. Also, the TGI in assay [6] and in assay [9] was > 100 µM in each case.

For `COc1cc2nc(N3CCC[C@@H](NC4=CC(=O)c5ccccc5C4=O)C3)nc(N)c2cc1OC`, the GI50 was 16.6 µM in [1]; 1.69 µM in assay [10]; 2.16 µM in [2]; 2.26 µM in assay [3]; 1.97 µM in assay [5]; 1.99 µM in assay [6]. Also, the GI50 in assay [7] is 1.59 µM; in [9], 2.1 µM. Also, the TGI in [1] was 38 µM; in assay [10] it was 3.26 µM; in [2], 4.26 µM; in assay [3], 4.85 µM; in assay [5], 3.8 µM; in assay [6], 4.3 µM. The TGI in assay [7] came to 3.36 µM; in assay [9], 3.85 µM.

Consider `CCOC(=O)/C(=N/Nc1ccc(Cl)cc1)N1C(=S)C=C(C)NN(C)C1=S`, for which the TGI in assay [1], in [10], in [3], in assay [4], in assay [5] and in [6] was > 100 µM throughout. The TGI in [7], in assay [8] and in [9] was > 100 µM throughout.

In the case of `Cc1nc(N(CCO)CCO)c2sc(=S)n(-c3ccccc3)c2n1`, the TGI in [1], in assay [2], in assay [3], in assay [4], in assay [5] and in assay [6] was > 100 µM each time. Moreover, the TGI in assay [7], in assay [8] and in assay [9] was > 100 µM each time.

With `Cc1ccc(S(=O)(=O)Nc2cc(Sc3ccccc3)c(O)c3ccccc23)cc1`, the GI50 is 1.86 µM in assay [1]; 2.43 µM in assay [10]; 7.99 µM in assay [2]; 7.11 µM in [3]; 2.8 µM in assay [4]; 12.3 µM in assay [5]. The GI50 was 4.44 µM in assay [6], 3.91 µM in assay [7], 3.19 µM in assay [8] and 17.5 µM in assay [9]. The TGI in assay [1] turned out to be 3.67 µM; in assay [10], 6.16 µM; in assay [2] it was 25.5 µM; in [3], 21.3 µM; in assay [4], 10.4 µM; in assay [5], 28.5 µM. Besides, the TGI was 22 µM in [6], 16.2 µM in assay [7], 9.51 µM in assay [8] and 31.7 µM in [9].

In the case of `C/C(=N\NC(=S)Nc1ccc(Cl)cc1)c1nc2ncccc2[nH]1`, the TGI in assay [1] was 7.75 µM; in [10], > 100 µM; in [2] it was 18.1 µM; in assay [3] it was 21.3 µM; in [4], 15.8 µM; in [5], > 100 µM. For the same compound, the TGI in assay [6] is 21.5 µM; in [7] it was 35.5 µM; in assay [8], 8.27 µM; in [9] it was 5.12 µM.

For the compound `BrC1=CN2C[n+]3cc(Br)c4ccccc4c3N=C2c2ccccc21`, the TGI in [1] was 48.8 µM; in assay [10], 34.6 µM; in assay [2], 16.6 µM; in [3], 48.7 µM; in [4], 34.7 µM; in assay [5] it was > 100 µM. The TGI in assay [6] is 56.4 µM; in assay [7], > 100 µM; in assay [8] it was 25.7 µM; in assay [9] it was 55 µM.

As to `COC(=O)C1=C(O)C(C(=O)OC)[C@@]2(O)[C@@H](C(=O)OC)CC[C@@H]1[C@@H]2C(=O)OC` (some centres not stated), the TGI in assay [1] was > 100 µM; in assay [10] it was 83.5 µM; in assay [2] it was 75.6 µM; in [3], 70.2 µM; in assay [4] it was > 100 µM; in [6] it was 56.6 µM. Also, the TGI stood at 46.1 µM in [8] and 93.4 µM in [9].

In the case of `CN(CCO)/N=N/c1nc[nH]c1C(N)=O`, the TGI in assay [1], in assay [2], in assay [3], in assay [4], in assay [5] and in assay [6] was > 100 µM in each case. For the same compound, the TGI in assay [7], in assay [8] and in assay [9] was > 100 µM in each case.

With `O=C(O)CN=c1c2ccccc2n(O)c2ccccc12`, the TGI in [1], in assay [2], in assay [3], in assay [4], in assay [5] and in [6] was > 100 µM in each case. Moreover, the TGI in assay [7] and in assay [9] was > 100 µM each time.

Take `CCOC(=O)C(=O)Nc1cccc(C)c1C`: the TGI in assay [1], in assay [2], in [3], in assay [4], in [5] and in [6] was > 100 µM throughout. For the same compound, the TGI in assay [7], in [8] and in assay [9] was > 100 µM in each case.

Consider `C/C([O-])=C(/c1nc(-c2ccc([N+](=O)[O-])o2)no1)[n+]1cc(C)ccc1C`, for which the TGI amounted to 24.2 µM in assay [1]; 37.3 µM in [2]; 37.5 µM in assay [3]; 30.8 µM in [5]; 24.9 µM in assay [6]; 16.9 µM in assay [7]. In [8], this compound yielded a TGI of 27.6 µM.
